Assay results: patent US20110218343A1, “SMALL MOLECULE INHIBITORS OF ROTAMASE ENZYME ACTIVITY” (GLIAMED, INC., priority 1995, published 2011)

Molecular target: FKBP (Homo sapiens, UniProt P62942)
Assay: FKBP rotamase (peptidyl-prolyl isomerase) inhibition, chymotrypsin-coupled assay
Format: biochemical
Conditions: apparent Ki; cis-trans isomerization of model substrate N-succinyl-Ala-Ala-Pro-Phe-p-nitroanilide, absorbance at 390 nm

Chain of FKBP (P62942 whole entry): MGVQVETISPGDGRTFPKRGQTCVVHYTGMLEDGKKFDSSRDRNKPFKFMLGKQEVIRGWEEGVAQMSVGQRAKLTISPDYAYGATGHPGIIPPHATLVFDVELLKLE

Row | Ki [nM] | SMILES
1 | 9000 | CCOC(=O)[C@H](Cc1ccccc1)NC(=O)[C@@H]1CCCN1C(=O)C(=O)C(C)(C)CC [Example 24, 1-[1-(3,3-dimethyl-1,2-dioxopentyl)-L-proline]-L-phenylalanine ethyl ester]

System: chick dorsal root ganglia (DRG) explants
Assay: Neurite outgrowth in chick dorsal root ganglion cultures
Format: cell-based
Conditions: whole ganglion explants from ten day chick embryos; neurites counted 48 hours after drug treatment
Procedure: Dorsal root ganglia were dissected from chick embryos of ten day gestation. Whole ganglion explants were cultured on thin layer Matrigel-coated 12 well plates with Liebovitz L15 plus high glucose media supplemented with 2 mM glutamine and 10% fetal calf serum, and also containing 10 μM cytosine .β-D arabinofuranoside (Ara C) at 37° C. in an environment containing 5% CO2. Twenty-four hours later, the DRGs were treated with various concentrations of nerve growth factor, immunophilin ligands or combinations of NFG plus drugs. Forty-eight hours after drug treatment, the ganglia were visualized under phase contrast or Hoffman Modulation contrast with a Zeiss Axiovert inverted microscope. Photomicrographs of the explants were made, and neurite outgrowth was quantitated. Neurites longer than the DRG diameter were counted as positive, with total number of neurites quantitated per each experimental condition. Three to four DRGs are cultured per well, and each treatment was performed in duplicate.

Row | SMILES | ED50 (Neurite Outgrowth in Chick DRG) [nM]
2 | CCC(C)(C)C(=O)C(=O)N1CCC[C@H]1C(=O)OCCCc1ccccc1 [Example 4, 3-phenyl-1-propyl(2S)-1-(3,3-dimethyl-1,2-dioxopentyl)-2-pyrrolidinecarboxylate] | 53
3 | CCC(C)(C)C(=O)C(=O)N1CCC[C@H]1C(=O)OC/C=C/c1ccc2c(c1)OCO2 [Example 9, 3-(4,5-Methylenedioxyphenyl)-1-prop-2-(E)-enyl(2S)-1-(3,3-dimethyl-1,2-dioxopentyl)-2-pyrrolidinecarboxylate] | 75
4 | CCC(C)(C)C(=O)C(=O)N1CCC[C@H]1C(=O)OCCCc1cc(OC)c(OC)c(OC)c1 [Example 6, 3-(3,4,5-Trimethoxyphenyl)-1-propyl(2S)-1-(3,3-dimethyl-1,2-dioxopentyl)-2-pyrrolidinecarboxylate] | 149
5 | CCC(C)(C)C(=O)C(=O)N1CCC[C@H]1C(=O)OC/C=C/c1cc(OC)c(OC)c(OC)c1 [Example 7, 3-(3,4,5-Trimethoxyphenyl)-1-prop-2-(E)-enyl(2S)-1-(3,3-dimethyl-1,2-dioxopentyl)-2-pyrrolidinecarboxylate] | 190
6 | CCC(C)(C)C(=O)C(=O)N1CCC[C@H]1C(=O)OC/C=C/c1ccc(Cl)c(Cl)c1 [Example 8, 3-(4,5-Dichlorophenyl)-1-prop-2-(E)-enyl(2S) -1-(3,3-dimethyl-1,2-dioxopentyl)-2-pyrrolidinecarboxylate] | 850
